Laboratory results taken from US6376497B1, “Antifungal azole derivatives having a fluorinated vinyl group and process for preparing same” (Korea Research Institute of Chemical Technology, priority 1999, dated 2002).

Legend:
Test in all cases: In vitro antifungal activity, microbroth dilution MIC
Assay type in all cases: cell-based
Details in all cases: RPMI-1640, 35° C., 4 to 48 hours, no growth observed
[1] = test system: Cryptococcus neoformans IFM. 40092
Procedure, shortened: (§1)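 Broth microdilution adapted from NCCLS M27, in RPMI-1640 with 0.165 M MOPS, pH 7.0. Yeast or mould inoculum at 2×10^3 CFU/ml was mixed 1:1 with DMSO-derived compound solutions (200 to 0.10 μg/ml before mixing) and incubated at 35 °C for 4 to 48 h. MIC was the concentration showing no growth.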

[2] = test system: Cryptococcus neoformans A. 34144
Procedure, shortened: as §1

[3] = test system: Candida albicans A. 10231
Procedure, shortened: as §1

[4] = test system: Candida tropicalis A. 13803
Procedure, shortened: as §1

[5] = test system: Torulopsis glabrata B. 16205
Procedure, shortened: as §1

[6] = test system: Candida albicans IFO. 1385
Procedure, shortened: as §1

[7] = test system: Aspergillus furnigatus B. 19119
Procedure, shortened: as §1

[8] = test system: Trichophyton mentagrophytes B. 32663
Procedure, shortened: as §1

[9] = test system: Candida parapsitosis A. 7330
Procedure, shortened: as §1

[10] = test system: Trichophyton mentagrophytes A. 9129
Procedure, shortened: as §1

[11] = test system: Candida pseudotropicalis K. 11658
Procedure, shortened: as §1

[12] = test system: Cryptococcus neoformans B. 42419
Procedure, shortened: as §1

[13] = test system: Aspergillus niger A. 16404
Procedure, shortened: as §1

Candida krusei K. 11655 = test system: Candida krusei K. 11655
Procedure, shortened: as §1

Candida albicans C1-2 = test system: Candida albicans C1-2
Procedure, shortened: as §1

| SMILES | Minimal inhibitory concentration(MIC), Cry. neoformans IFM. 40092 [1] | Minimal inhibitory concentration(MIC), Cry. neoformans A. 34144 [2] | Minimal inhibitory concentration(MIC), C. albicans A. 10231 [3] | Minimal inhibitory concentration(MIC), C. tropicalis A. 13803 [4] | Minimal inhibitory concentration(MIC), T. glabrata B. 16205 [5] | Minimal inhibitory concentration(MIC), C. albicans IFO. 1385 [6] | Minimal inhibitory concentration(MIC), A furnigatus B. 19119 [7] | Minimal inhibitory concentration(MIC), T. mentagrophytes B. 32663 [8] | Minimal inhibitory concentration(MIC), C. parapsitosis A. 7330 [9] | Minimal inhibitory concentration(MIC), T. mentagrophytes A. 9129 [10] | Minimal inhibitory concentration(MIC), C. pseudotropicalis K. 11658 [11] | Minimal inhibitory concentration(MIC), Cry. neoformans B. 42419 [12] | Minimal inhibitory concentration(MIC), A. niger A. 16404 [13] | Minimal inhibitory concentration(MIC), C. krusei K. 11655 (Candida krusei K. 11655) | Minimal inhibitory concentration(MIC), C. albicans C1-2 (Candida albicans C1-2) |
| --- | --- | --- | --- | --- | --- | --- | --- | --- | --- | --- | --- | --- | --- | --- | --- |
| COc1ccc(C=C(F)Oc2ccc(OCC3COC(Cn4cncn4)(c4ccc(Cl)cc4Cl)O3)cc2)cc1 (mixture of isomers) [Ex. 118] | 0.39 µg/mL | 1.56 µg/mL | 25.0 µg/mL | 100 µg/mL | 50.0 µg/mL | 1.56 µg/mL | >100 µg/mL | 3.13 µg/mL | >100 µg/mL | 6.25 µg/mL | 25.0 µg/mL | 1.56 µg/mL | >100 µg/mL | >100 µg/mL | 12.5 µg/mL |
| FC(Oc1ccc(OCC2COC(Cn3cncn3)(c3ccc(Cl)cc3Cl)O2)cc1)=C(c1ccccc1)C(F)(F)F (mixture of isomers) [Ex. 119] | 0.39 µg/mL | 1.56 µg/mL | 50.0 µg/mL | >100 µg/mL | 50.0 µg/mL | 1.56 µg/mL | >100 µg/mL | 3.13 µg/mL | >100 µg/mL | 6.25 µg/mL | >100 µg/mL | 1.56 µg/mL | >100 µg/mL | >100 µg/mL | 25.0 µg/mL |
| Cc1ccc(C(=C(F)Oc2ccc(OCC3COC(Cn4cncn4)(c4ccc(Cl)cc4Cl)O3)cc2)C(F)(F)F)cc1 (mixture of isomers) [Ex. 120] | 0.39 µg/mL | 1.56 µg/mL | 25.0 µg/mL | 100 µg/mL | 50.0 µg/mL | 1.56 µg/mL | >100 µg/mL | 3.13 µg/mL | >100 µg/mL | 6.25 µg/mL | >100 µg/mL | 3.13 µg/mL | >100 µg/mL | >100 µg/mL | 25.0 µg/mL |
| COc1ccc(C(=C(F)Oc2ccc(OCC3COC(Cn4cncn4)(c4ccc(Cl)cc4Cl)O3)cc2)C(F)(F)F)cc1 (mixture of isomers) [Ex. 121] | 0.20 µg/mL | 1.56 µg/mL | 100 µg/mL | >100 µg/mL | 50.0 µg/mL | 3.13 µg/mL | >100 µg/mL | 3.13 µg/mL | 100 µg/mL | 6.25 µg/mL | 25.0 µg/mL | 1.56 µg/mL | >100 µg/mL | 100 µg/mL | 100 µg/mL |
| FC(Oc1ccc(OCC2COC(Cn3cncn3)(c3ccc(Cl)cc3Cl)O2)cc1)=C(c1ccc(Cl)cc1)C(F)(F)F (mixture of isomers) [Ex. 122] | 0.20 µg/mL | 0.78 µg/mL | 12.5 µg/mL | 25.0 µg/mL | 12.5 µg/mL | 0.78 µg/mL | 12.5 µg/mL | 3.13 µg/mL | 6.25 µg/mL | 6.25 µg/mL | 6.25 µg/mL | 1.56 µg/mL | 100 µg/mL | 12.5 µg/mL | 6.25 µg/mL |
| FC(Oc1ccc(OCC2COC(Cn3cncn3)(c3ccc(Cl)cc3Cl)O2)cc1)=C(c1ccc(F)cc1)C(F)(F)F (mixture of isomers) [Ex. 123] | 0.39 µg/mL | 1.56 µg/mL | 25.0 µg/mL | 100 µg/mL | 50.0 µg/mL | 1.56 µg/mL | >100 µg/mL | 3.13 µg/mL | >100 µg/mL | 6.25 µg/mL | 25.0 µg/mL | 1.56 µg/mL | >100 µg/mL | >100 µg/mL | 12.5 µg/mL |
| FC(=C(c1ccccc1)C(F)(F)F)N1CCN(c2ccc(OCC3COC(Cn4ccnc4)(c4ccc(Cl)cc4Cl)O3)cc2)CC1 (mixture of isomers) [Ex. 124] | 0.39 µg/mL | 1.56 µg/mL | 50.0 µg/mL | >100 µg/mL | 50.0 µg/mL | 1.56 µg/mL | >100 µg/mL | 3.13 µg/mL | >100 µg/mL | 6.25 µg/mL | >100 µg/mL | 1.56 µg/mL | >100 µg/mL | >100 µg/mL | 25.0 µg/mL |
| Cc1cccc(C(=C(F)N2CCN(c3ccc(OCC4COC(Cn5ccnc5)(c5ccc(Cl)cc5Cl)O4)cc3)CC2)C(F)(F)F)c1 (mixture of isomers) [Ex. 125] | 0.39 µg/mL | 1.56 µg/mL | 25.0 µg/mL | 100 µg/mL | 50.0 µg/mL | 1.56 µg/mL | >100 µg/mL | 3.13 µg/mL | >100 µg/mL | 6.25 µg/mL | >100 µg/mL | 3.13 µg/mL | >100 µg/mL | >100 µg/mL | 25.0 µg/mL |
